The source of these data is patent EP0697407B1, “Pyrimidinedione derivatives and antiarrhythmic compositions containing same” (MITSUI TOATSU CHEMICALS, Inc., priority 1994, dated 1996).

Data set [1] has as its system right Purkinje fiber. The data set can be described thus: Effect on myocardial action potential duration (APD75) in isolated, perfused Purkinje fiber. The data set is classed as cell-based, mongrel adult dog. To be noted: Canis lupus familiaris, 20 min, 20 minutes' incubation, field stimulus of 1 Hz, 37°C, read-out: T (%), percent prolongation of myocardial action potential duration (APD75); for activation at 1 µM: Dose 1 x 10^-6 M; for activation at 10 µM: Dose 10 x 10^-6 M; for activation at 100 µM: Dose 100 x 10^-6 M. The method, then: After a mongrel adult dog was anesthetized by the intravenous administration of 30 mg/kg of pentobarbital, the heart was excised therefrom. Then, the right Purkinje fiber was isolated in a nutrient fluid (i.e., Tyrode's solution). The isolated right Purkinje fiber was fixed in a constant-temperature bath (20 ml) at 37°C and perfused with Tyrode's solution. In this state, the myocardial action potential duration (APD75) was measured before and after the administration of each test compound. Then, the percent prolongation of myocardial action potential duration (T) after the administration of each test compound was calculated according to the following equation. T(%) =(B - A)/(A)x 100 [formula] where A: APD75 before administration B: APD75 after administration
APD75 was measured as follows: A field stimulus of 1 Hz was given to the right Purkinje fiber, and any change in action potential was detected by a glass microelectrode (10-20 MΩ) penetrated into a Purkinje fiber and monitored on an oscilloscope via an amplifier. The waveform on the oscilloscope was analyzed by means of a computer, and the duration beween the point of action potential generation adn the point of 75% repolarization was defined as APD75. The test compounds shown in Table 2 were separately added to the perfusing nutrient fluid, and after 20 minutes' incubation was recorded. This test was carried out according to the method of Sato et al. [S. Sato, K. Hashimoto; Arzneimittel Forschung, 34(1), 3a, 376-380(1984)].

Data set [2] can be described thus: Toxicity test (mortality rate 24 hours after administration). As to conditions: mouse, in vivo, ip; 100 mg/kg (i.p.); twenty-four hours after administration; groups of three mice. The method, then: The test compounds were separately administered to mice (ddy strain, male). The administration of each compound was carried out intraperitoneally (i.p.) in a dose of 100 mg/kg. Twenty-four hours after the administration, the mortality rate of the mice (in groups of three) was examined.

Data set [3] relates to ventricular muscle. The data set can be described thus: Effect on ventricular muscle refractory period (ERP) under ventricular pacing in anesthetized dog. Format: in vivo, mongrel adult dog. As to conditions: ventricular pacing at 400 msec. The method, then:
According to the method described below, the refractory period was measured before and after the intravenous administration of each test compound, and the percent prolongation of refractory period (ERP) was calculated according to the following equation. ERP prolongation (%) =(W - Y)/(Y)x 100 [formula] where W: Refractory period after administration Y: Refractory period before administration
After a mongrel adult dog was anesthetized by the intravenous (i.v.) administration of 30 mg/kg of pentobarbital, the chest was opened on the right side. Then, a set of silver-silver chloride electrodes spaced by 3 mm was sewn on the right ventricle, and […] electrical stimuli (a duration of 4 msec, and a current intensity equal to twice the threshold) were given at an interval of 400 msec. Thereafter, a small amount of alcohol was injected into a sinus artery in order to destroy the pacemaker activity, and the ventricular refractory period (ERP) was measured under ventricular pacing. Specifically, one train comprised a series of stimuli having an interval of 400 msec, and the interval between trains was usually 400 msec. During measurement of the refractory period, this interval was shortened by decrements of 10 msec, and the interval between trains at which the response to the first stimulus of the train disappeared was regarded as the refractory period. These electrical stimuli were given by programmed stimulation using a heart stimulation apparatus (Diamedical Co., Ltd.; DHM-226-3).

A short description of data set [4]: Stability test in acid aqueous solution (Solution 1 of the Japanese Pharmacopoeia, pH 1.2), remaining compound by HPLC. The data set is classed as physicochemical. As to conditions: Solution 1 (pH 1.2). The method, then: In order to confirm the stability of the compounds of the present invention in an acid aqueous solution, stability was tested on the fumarate of 6-[3-[N-[2-(4-methanesulfonylaminophenyl)ethyl]-N-propylamino]propyl]-1,3-dimethyl-2,4(1H,3H)pyrimidinedione (the compound obtained in Example 118; hereinafter referred to as compound A) which is a compound in accordance with the present invention, and 1,3-dimethyl-6-{2-[N-ethyl-3-phenylpropylamino]ethylamino}2,4(1H,3H)-pyrimidinedione (hereinafter referred to as compound B) which is a pyrimidinedione derivative having a substituted amino group at the 6-position of the pyrimidinedione ring as described in European Publication No. 454,498 A2 and was used for purposes of comparison.
Solution 1 (pH 1.2) described in the Japaense Pharmacopoeia was prepared by adding 7.0 ml of hydrochloric acid and water to 2.0 g of sodium chloride so as to give the final volume of 1,000 ml.
Compounds A and B were dissolved in Solution 1 at a concentration of 2 mg/ml and the resulting solutions were stirred at 37°C. Thus, changes with time in the percentages of the remaining compounds A and B were examined by HPLC.

For `CCN(CCCc1cc(=O)n(C)c(=O)n1C)CCOc1ccc([N+](=O)[O-])cc1` [Example 28, 6-[3-[N-ethyl-N-[2-(4-nitrophenoxy)ethyl]amino]propyl]-1,3-dimethyl-2,4(1H,3H)pyrimidinedione], in data set [1], the activation at 1 µM worked out at 14%, the activation at 10 µM is 35% and the activation at 100 µM worked out at 114%.

Regarding `CCN(CCCc1cc(=O)n(C)c(=O)n1C)CCOc1cccc(F)c1` [Example 38, 6-[3-[N-ethyl-N-[2-(3-fluorophenoxy)ethyl]amino]propyl]-1,3-dimethyl-2,4(1H,3H)pyrimidinedione], in data set [1], the activation at 1 µM is 6%, the activation at 10 µM stood at 16% and the activation at 100 µM was determined as 22%.

On to `CCN(CCCc1cc(=O)n(C)c(=O)n1C)CCOc1ccc(F)cc1` [Example 39, 6-[3-[N-ethyl-N-[2-(4-fluorophenoxy)ethyl]amino]propyl]-1,3-dimethyl-2,4(1H,3H)pyrimidinedione], for which, in data set [1], the activation at 1 µM stood at 14%, the activation at 10 µM turned out to be 53% and the activation at 100 µM worked out at 49%.

For the compound `CCCN(CCCc1cc(=O)n(C)c(=O)n1C)CCOc1ccc(C(C)=O)cc1` [Example 47, 6-[3-[N-[2-(4-acetylphenoxy)ethyl]-N-propylamino]propyl]-1,3-dimethyl-2,4(1H,3H)pyrimidinedione], in data set [1], the activation at 1 µM was 13%, the activation at 10 µM came out at 53% and the activation at 100 µM was 107%. In data set [2], this compound gave a mortality at 24 h of 0%.

For the compound `CC(C)N(CCCc1cc(=O)n(C)c(=O)n1C)CCOc1ccc(-n2ccnc2)cc1` [Example 53, 6-[3-[N-[2-(4-(1H-imidazol-1-yl)phenoxy)ethyl]-N-isopropylamino]propyl]-1,3-dimethyl-2,4(1H,3H)pyrimidinedione], in data set [1], the activation at 1 µM stood at 8%, the activation at 10 µM stood at 24% and the activation at 100 µM is 49%. The same compound came in with a mortality at 24 h in data set [2] of 0%.

On to `CC(=O)c1cc(F)ccc1OCCN(C)CCCc1cc(=O)n(C)c(=O)n1C` [Example 60, 6-[3-[N-[2-(2-acetyl-4-fluorophenoxy)ethyl]-N-methylamino]propyl]-1,3-dimethyl-2,4(1H,3H)pyrimidinedione], for which, in data set [1], the activation at 1 µM came to 13%, the activation at 10 µM amounted to 34% and the activation at 100 µM worked out at 47%. Also, in data set [2], the mortality at 24 h stood at 0%.

As to `CCN(CCOc1ccc(F)cc1C(C)=O)CCc1cc(=O)n(C)c(=O)n1C` [Example 61, 6-[2-[N-[2-(2-acetyl-4-fluorophenoxy)ethyl]-N-ethylamino]ethyl]-1,3-dimethyl-2,4(1H,3H)pyrimidinedione], in data set [1], the activation at 1 µM is 3%, the activation at 10 µM worked out at 18% and the activation at 100 µM was determined as 35%.

Turning to `CCCN(CCCc1cc(=O)n(C)c(=O)n1C)CCc1ccc([N+](=O)[O-])cc1` [Example 76, 1,3-dimethyl-6-[3-[N-[2-(4-nitrophenyl)ethyl]-N-propylamino]propyl]-2,4(1H,3H)pyrimidinedione], in data set [1], the activation at 1 µM was 52% and the activation at 10 µM is 114%.

In the case of `CCN(CCCc1cc(=O)n(C)c(=O)n1C)CCc1ccc([N+](=O)[O-])cc1` [Example 84, 6-[3-[N-ethyl-N-[2-(4-nitrophenyl)ethyl]amino]propyl]-1,3-dimethyl-2,4(1H,3H)pyrimidinedione], in data set [1], the activation at 1 µM stood at 23%, the activation at 10 µM was 72% and the activation at 100 µM was 96%.

Take `CC(C)N(CCCc1cc(=O)n(C)c(=O)n1C)CCOc1ccc(NS(C)(=O)=O)cc1` [Example 116, 6-[3-[N-[2-(4-methanesulfonylaminophenoxy)ethyl]-N-isopropylamino]propyl]-1,3-dimethyl-2,4(1H,3H)pyrimidinedione]: the “ERP (%), percent prolongation of refractory period” value (from here on “ERP (%), percent prolongation”) in data set [3] (Dose 0.1 mg/kg i.v.) is reported as 6.3%. In addition, the “ERP (%), percent prolongation” value in data set [3] (Dose 0.3 mg/kg i.v.) is recorded as 12.5%. In data set [3] (Dose 1.0 mg/kg i.v.), the “ERP (%), percent prolongation” value is reported as 25.0%. Also, in data set [1], the activation at 1 µM came out at 9%, the activation at 10 µM was determined as 43% and the activation at 100 µM was 77%. The mortality at 24 h in data set [2] worked out at 0%.

In the case of `CCN(CCCOc1ccc(NS(C)(=O)=O)cc1)CCCc1cc(=O)n(C)c(=O)n1C` [Example 122, 6-[3-[N-ethyl-N-[3-(4-methanesulfonylaminophenoxy)propyl]amino]propyl]-1,3-dimethyl-2,4(1H,3H)-pyrimidinedione], in data set [1], the activation at 1 µM came out at 10%, the activation at 10 µM came out at 14% and the activation at 100 µM was 33%.

For the compound `CCN(CCOc1ccc(NS(C)(=O)=O)cc1)CCc1cc(=O)n(C)c(=O)n1C` [Example 123, 6-[2-[N-ethyl-N-[2-(4-methanesulfonylaminophenoxy)ethyl]amino]ethyl]-1,3-dimethyl-2,4(1H,3H)-pyrimidinedione], in data set [1], the activation at 1 µM turned out to be 12%, the activation at 10 µM was 41% and the activation at 100 µM worked out at 64%.

Turning to `CCCN(CCOc1ccc(NS(C)(=O)=O)cc1)CCc1cc(=O)n(C)c(=O)n1C` [Example 126, 6-[2-[N-n-propyl-N-[2-(4-methanesulfonylaminophenoxy)ethyl]amino]ethyl]-1,3-dimethyl-2,4(1H,3H)pyrimidinedione], in data set [3] (Dose 0.3 mg/kg i.v.), the “ERP (%), percent prolongation” value was 5.9%. Also, the “ERP (%), percent prolongation” value in data set [3] (Dose 1.0 mg/kg i.v.) is 11.8%. Moreover, in data set [1], the activation at 1 µM turned out to be 14%, the activation at 10 µM amounted to 46% and the activation at 100 µM came to 85%.

Regarding `CCN(CCCc1ccc(NS(C)(=O)=O)cc1)CCCc1cc(=O)n(C)c(=O)n1C` [Example 138, 6-[3-[N-ethyl-N-[3-(4-methanesulfonylaminophenyl)propyl]amino]propyl]-1,3-dimethyl-2,4(1H,3H)-pyrimidinedione], in data set [1], the activation at 1 µM is 6%, the activation at 10 µM amounted to 22% and the activation at 100 µM came out at 49%.

Turning to `CCN(CCCc1ccccc1)CCNc1cc(=O)n(C)c(=O)n1C` [compound B, 1,3-dimethyl-6-{2-[N-ethyl-3-phenylpropylamino]ethylamino}2,4(1H,3H)-pyrimidinedione], in data set [4] (0 hr, 2 mg/ml, stirred at 37°C, HPLC), the “Percentage of remaining compound” value amounted to 100%. Moreover, the amount remaining at 3 h in data set [4] (jp solution 1, 3 hr, 2 mg/ml, stirred at 37°C, HPLC, read-out: Percentage of remaining compound) amounted to 96%. In addition, the degraded at 6 h in data set [4] (jp solution 1, 6 hours, 37°C, read-out: decrease after 6 hours' heating) was found to be 7%. Moreover, the fraction remaining at 6 h in data set [4] (jp solution 1, 6 hr, 2 mg/ml, stirred at 37°C, HPLC, read-out: Percentage of remaining compound) amounted to 93%.
